One assay has as its target T1, PPARα (Homo sapiens, UniProt Q07869).
T1 sequence (Q07869 200-468 limits assumed): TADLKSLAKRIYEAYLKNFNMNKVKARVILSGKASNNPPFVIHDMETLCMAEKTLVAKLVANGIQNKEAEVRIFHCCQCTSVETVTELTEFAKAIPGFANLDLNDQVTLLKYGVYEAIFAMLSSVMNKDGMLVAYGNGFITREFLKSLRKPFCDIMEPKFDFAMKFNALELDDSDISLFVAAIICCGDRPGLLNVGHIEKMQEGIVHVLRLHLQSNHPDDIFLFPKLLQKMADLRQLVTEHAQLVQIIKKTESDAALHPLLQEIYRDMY
In words: Crossover-curve PPAR transactivation test (PPARα). The class given is cell-based. Particulars: HeLN cells stably transfected with ERE-βGlob-Luc-SV-Neo and Gal-hPPARα; Schild regression against reference agonist; n.a. means not active; read-out: PPARα Kd app. How it is done: (§1) The activation of PPAR receptors with an agonist (activator) in HeLN cells leads to the expression of a reporter gene, luciferase, which, in the presence of a substrate, generates light. The modulation of the PPAR receptors is measured by quantifying the luminescence produced after incubating the cells in the presence of a reference agonist. The ligands displace the agonist from its site. The measurement of the activity is performed by quantifying the light produced. This measurement makes it possible to determine the modulatory activity of the compounds according to the invention by determining the constant that represents the affinity of the molecule for the PPAR receptor. Since this value can fluctuate depending on the basal activity and the expression of the receptor, it is referred to as Kd apparent (KdApp in nM).
(§2) To determine this constant, “crossover curves” of the test product against a reference agonist are performed in a 96-well plate: 10 concentrations of the test product plus a concentration 0 are arranged in a line, and 7 concentrations of the agonist plus a concentration 0 are arranged in a column. This represents 88 measurement points for 1 product and 1 receptor. The remaining 8 wells are used for repeatability controls.
(§3) Measurements are also taken for total agonist controls with the same products.
(§4) The HeLN cell lines used are stable transfectants containing the plasmids ERE-βGlob-Luc-SV-Neo (reporter gene) and PPAR (α, δ, γ) Gal-hPPAR. These cells are inoculated into 96-well plates at a rate of 10 000 cells per well in 100 μl of DMEM medium without phenol red and supplemented with 10% of defatted calf serum. The plates are then incubated at 37° C. and 7% CO2 for 16 hours.
(§5) The various dilutions of the test products and of the reference ligand are added at a rate of 5 μl per well. The plates are then incubated for 18 hours at 37° C. and 7% CO2. The culture medium is removed by turning over and 100 μl of a 1:1 PBS/luciferine mixture are added to each well. After 5 minutes, the plates are read by the luminescence detector.

For a further assay, the target named is T2, PPARγ (Homo sapiens, UniProt P37231).
T2 sequence (P37231 238-505 limits assumed): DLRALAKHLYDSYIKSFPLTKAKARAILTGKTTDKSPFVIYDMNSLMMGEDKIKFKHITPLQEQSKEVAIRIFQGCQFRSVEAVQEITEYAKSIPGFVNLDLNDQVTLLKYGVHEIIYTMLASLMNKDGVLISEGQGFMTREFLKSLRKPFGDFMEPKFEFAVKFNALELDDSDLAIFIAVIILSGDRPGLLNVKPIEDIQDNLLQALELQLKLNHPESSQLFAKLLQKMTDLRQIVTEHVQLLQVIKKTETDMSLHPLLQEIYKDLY
In words: Crossover-curve PPAR transactivation test (PPARγ). The class given is cell-based. The note with it: HeLN cells stably transfected with ERE-βGlob-Luc-SV-Neo and Gal-hPPARγ; Schild regression against reference agonist; n.a. means not active; read-out: PPARγ Kd app. Here is the method: as §1, §2, §3, §4, §5

Where a name gives a salt, the structure may show the parent alone.

Take `CCCCCCCC(=O)N(C)Cc1cc(-c2ccc(C[C@H](OCC)C(=O)O)cc2)cs1` [Example 5, 2(S)-Ethoxy-3-(4-{5-[(methyloctanoylamino)methyl]thiophen-3-yl}phenyl)propanoic acid]: the Kd at PPARα stood at 4000 nM; at PPARγ, 0.06 nM.

As to `CCCCCCCC(=O)N(C)Cc1ccc(-c2ccc(C[C@H](OCC)C(=O)O)cc2)s1` [Example 6, 2(S)-Ethoxy-3-(4-{5-[(methyloctanoylamino)methyl]thiophen-2-yl}phenyl)propanoic acid], the Kd worked out at 1000 nM at PPARα and 2 nM at PPARγ. For `CCCCCCCNC(=O)N(C)c1ncc(-c2ccc(C[C@H](OCC)C(=O)O)cc2)s1` [Example 7, 2(S)-Ethoxy-3-{4-[2-(3-heptyl-1-methylureido)thiazol-5-yl]phenyl}propanoic acid], the Kd at PPARα was determined as 2000 nM; at PPARγ, 60 nM. As for `CCCCCNC(=O)N(C)c1ncc(-c2ccc(C[C@H](OCC)C(=O)O)cc2)s1` [Example 8, 2(S)-Ethoxy-3-{4-[2-(1-methyl-3-pentylureido)thiazol-5-yl]phenyl}propanoic acid], the Kd at PPARγ came out at 30 nM. Turning to `CCCCCCCNC(=O)N(C)c1cccc(-c2ccc(C[C@H](OCC)C(=O)O)cc2)n1` [Example 10, 2(S)-Ethoxy-3-{4-[6-(3-heptyl-1-methylureido)pyrid-2-yl]phenyl}propanoic acid hydrochloride], the Kd on PPARα stood at 120 nM; on PPARγ, 0.5 nM. Regarding `CCCCCC(=O)N(C)Cc1cc(-c2ccc(C[C@H](Nc3ccccc3C(=O)c3ccccc3)C(=O)O)cc2)cs1` [Example 15, 2(S)-(2-Benzoylphenylamino)-3-(4-{5-[(hexanoylmethylamino)methyl]thiophen-3-yl}phenyl)propanoic acid], the Kd on PPARα came to 2000 nM; on PPARγ it was 1000 nM. Take `CCCCCCCNC(=O)N(C)c1cccc(-c2ccc(CC(OCC)C(=O)O)cn2)c1` (stereo not shown) [Example 20, 2-Ethoxy-3-{6-[3-(3-heptyl-1-methylureido)phenyl]pyrid-3-yl}propanoic acid]: the Kd on PPARγ is 4 nM. For the compound “N-{3-[5-(2,4-dioxothiazolidin-5-ylmethyl)pyrid-2-yl]benzyl}-N-methyloctanoylamide [Example 4]”, on PPARγ, the Kd amounted to 500 nM.

The record behind these values is patent publication US8022079B2, “Methods of modulating PPAR gamma-type receptors” (Galderma Research & Development, priority 2003, dated 2011).
